Laboratory results as given in ChEMBL document CHEMBL3886253, “Imidazolidinones and analogs exhibiting anti-cancer and anti-proliferative activities” (2015).

Key:
[1] = target: Macrophage colony-stimulating factor 1 receptor (Homo sapiens, UniProt P07333); experiment: Enzymatic Assay: Activity of unphosphorylated c-FMS kinase (uFMS, Seq. ID no. 1) was determined by following the production of ADP from the FMS kinase reaction with ATP and poly E4Y as substrates through coupling with the pyruvate kinase/lactate dehydrogenase system (e.g., Schindler et al. Science (2000) 289: 1938-1942). In this assay, the oxidation of NADH (thus the decrease at A340 nm) was continuously monitored spectrophometrically. The reaction mixture (100 µL) contained FMS (purchased from Millipore) (10 nM), polyE4Y (1 mg/mL), MgCl2 (10 mM), pyruvate kinase (4 units), lactate dehydrogenase (0.7 units), phosphoenol pyruvate (1 mM), NADH (0.28 mM) and ATP (500 µM) in 90 mM Tris buffer containing 0.2% octyl-glucoside and 1% DMSO, pH 7.5. The inhibition reaction was started by mixing serial diluted test compound with the above reaction mixture. The absorption at 340 nm was monitored continuously for 4 hours at 30° C. on Synergy 2 plate reader.
Chain of Macrophage colony-stimulating factor 1 receptor (P07333 whole entry): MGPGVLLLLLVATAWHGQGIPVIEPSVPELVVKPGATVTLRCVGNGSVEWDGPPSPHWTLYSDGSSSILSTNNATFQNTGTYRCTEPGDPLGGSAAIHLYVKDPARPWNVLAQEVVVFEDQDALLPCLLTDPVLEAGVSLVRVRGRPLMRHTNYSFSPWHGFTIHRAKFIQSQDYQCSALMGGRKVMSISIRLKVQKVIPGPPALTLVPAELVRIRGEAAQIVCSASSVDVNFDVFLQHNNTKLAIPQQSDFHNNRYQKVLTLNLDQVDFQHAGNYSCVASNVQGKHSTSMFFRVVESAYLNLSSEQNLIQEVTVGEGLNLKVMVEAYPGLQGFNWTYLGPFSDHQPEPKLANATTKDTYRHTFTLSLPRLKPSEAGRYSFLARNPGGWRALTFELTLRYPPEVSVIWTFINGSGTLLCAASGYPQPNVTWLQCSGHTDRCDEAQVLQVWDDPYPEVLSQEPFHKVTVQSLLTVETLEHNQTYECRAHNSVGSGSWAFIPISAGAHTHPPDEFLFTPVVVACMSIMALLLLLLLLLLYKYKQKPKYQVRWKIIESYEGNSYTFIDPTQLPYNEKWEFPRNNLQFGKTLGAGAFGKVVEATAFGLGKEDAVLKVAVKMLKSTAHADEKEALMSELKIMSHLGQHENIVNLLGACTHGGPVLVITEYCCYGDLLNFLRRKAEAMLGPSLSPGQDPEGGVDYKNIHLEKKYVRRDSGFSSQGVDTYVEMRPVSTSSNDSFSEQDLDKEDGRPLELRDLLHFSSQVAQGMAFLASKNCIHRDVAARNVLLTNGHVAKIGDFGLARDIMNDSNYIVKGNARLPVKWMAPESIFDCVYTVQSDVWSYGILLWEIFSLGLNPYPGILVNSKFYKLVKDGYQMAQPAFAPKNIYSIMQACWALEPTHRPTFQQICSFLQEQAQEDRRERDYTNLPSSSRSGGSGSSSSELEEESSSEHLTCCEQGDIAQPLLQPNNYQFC

[2] = target: Hepatocyte growth factor receptor (Homo sapiens, UniProt P08581); experiment: (§1) In Vitro Receptor Tyrosine Kinase Assay: These tests measure the ability of compounds to inhibit the enzymatic activity of recombinant human c-Met/HGF receptor and VEGF receptor enzymatic activity. A 1.3-kb cDNA corresponding to the intracellular domain of c-Met or c-Met IC (Genbank accession number NP000236-1 amino acid 1078 to 1337) is cloned into the BamHI/XhoI sites of the pBlueBacHis2A vector (Invitrogen) for the production of a histidine-tagged version of that enzyme. This construct is used to generate recombinant baculovirus using the Bac-N-Blue¿ system according to the manufacturer's instructions (Invitrogen). The c-Met IC protein is expressed in Hi-5 cells (Trichoplusia Ni) upon infection with recombinant baculovirus construct. Briefly, Hi-5 cells grown in suspension and maintained in serum-free medium (Sf900 II supplemented with gentamycin) at a cell density of about 2x10^6 cells/ml are infected with the above-mentioned viruses at a multiplicity of infection (MOI) of 0.2 during 72 hours at 27 C.
Chain of Hepatocyte growth factor receptor (P08581 whole entry, the tested form may be a part): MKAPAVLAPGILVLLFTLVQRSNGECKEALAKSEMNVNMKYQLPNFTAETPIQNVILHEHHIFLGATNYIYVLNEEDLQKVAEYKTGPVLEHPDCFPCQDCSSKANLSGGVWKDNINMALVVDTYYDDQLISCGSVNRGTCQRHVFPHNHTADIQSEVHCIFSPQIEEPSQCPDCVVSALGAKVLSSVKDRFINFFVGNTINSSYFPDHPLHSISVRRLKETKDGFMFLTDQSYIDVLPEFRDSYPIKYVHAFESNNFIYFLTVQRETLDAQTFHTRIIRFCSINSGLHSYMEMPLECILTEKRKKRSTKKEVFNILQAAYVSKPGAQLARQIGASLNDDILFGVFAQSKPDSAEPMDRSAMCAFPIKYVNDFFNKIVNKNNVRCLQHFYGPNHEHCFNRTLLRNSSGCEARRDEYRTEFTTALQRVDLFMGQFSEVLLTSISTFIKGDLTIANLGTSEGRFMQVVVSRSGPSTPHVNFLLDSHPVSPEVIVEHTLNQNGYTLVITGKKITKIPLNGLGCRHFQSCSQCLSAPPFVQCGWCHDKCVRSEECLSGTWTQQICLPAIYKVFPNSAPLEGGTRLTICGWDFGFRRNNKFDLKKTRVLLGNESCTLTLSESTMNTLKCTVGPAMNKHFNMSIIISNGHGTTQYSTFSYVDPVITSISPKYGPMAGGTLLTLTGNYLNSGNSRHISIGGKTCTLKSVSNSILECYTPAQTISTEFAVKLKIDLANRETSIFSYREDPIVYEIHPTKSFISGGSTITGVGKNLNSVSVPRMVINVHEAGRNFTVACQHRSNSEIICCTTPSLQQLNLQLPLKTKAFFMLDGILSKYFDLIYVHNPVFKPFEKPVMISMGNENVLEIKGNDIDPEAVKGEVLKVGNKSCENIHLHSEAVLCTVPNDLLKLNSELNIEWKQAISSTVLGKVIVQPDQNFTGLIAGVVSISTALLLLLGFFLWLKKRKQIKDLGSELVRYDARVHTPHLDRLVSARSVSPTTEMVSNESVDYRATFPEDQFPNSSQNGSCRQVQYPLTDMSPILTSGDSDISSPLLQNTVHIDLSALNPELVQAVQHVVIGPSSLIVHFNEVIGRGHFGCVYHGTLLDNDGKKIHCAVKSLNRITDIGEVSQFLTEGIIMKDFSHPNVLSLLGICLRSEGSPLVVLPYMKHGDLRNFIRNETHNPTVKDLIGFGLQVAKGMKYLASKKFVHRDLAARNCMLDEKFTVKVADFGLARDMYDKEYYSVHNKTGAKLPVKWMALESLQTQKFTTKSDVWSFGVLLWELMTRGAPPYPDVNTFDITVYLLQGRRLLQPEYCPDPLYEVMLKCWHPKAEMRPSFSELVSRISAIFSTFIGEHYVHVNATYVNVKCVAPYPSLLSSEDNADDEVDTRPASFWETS

[3] = target: Vascular endothelial growth factor receptor 2 (Homo sapiens, UniProt P35968); experiment: as §1
Chain of Vascular endothelial growth factor receptor 2 (P35968 whole entry): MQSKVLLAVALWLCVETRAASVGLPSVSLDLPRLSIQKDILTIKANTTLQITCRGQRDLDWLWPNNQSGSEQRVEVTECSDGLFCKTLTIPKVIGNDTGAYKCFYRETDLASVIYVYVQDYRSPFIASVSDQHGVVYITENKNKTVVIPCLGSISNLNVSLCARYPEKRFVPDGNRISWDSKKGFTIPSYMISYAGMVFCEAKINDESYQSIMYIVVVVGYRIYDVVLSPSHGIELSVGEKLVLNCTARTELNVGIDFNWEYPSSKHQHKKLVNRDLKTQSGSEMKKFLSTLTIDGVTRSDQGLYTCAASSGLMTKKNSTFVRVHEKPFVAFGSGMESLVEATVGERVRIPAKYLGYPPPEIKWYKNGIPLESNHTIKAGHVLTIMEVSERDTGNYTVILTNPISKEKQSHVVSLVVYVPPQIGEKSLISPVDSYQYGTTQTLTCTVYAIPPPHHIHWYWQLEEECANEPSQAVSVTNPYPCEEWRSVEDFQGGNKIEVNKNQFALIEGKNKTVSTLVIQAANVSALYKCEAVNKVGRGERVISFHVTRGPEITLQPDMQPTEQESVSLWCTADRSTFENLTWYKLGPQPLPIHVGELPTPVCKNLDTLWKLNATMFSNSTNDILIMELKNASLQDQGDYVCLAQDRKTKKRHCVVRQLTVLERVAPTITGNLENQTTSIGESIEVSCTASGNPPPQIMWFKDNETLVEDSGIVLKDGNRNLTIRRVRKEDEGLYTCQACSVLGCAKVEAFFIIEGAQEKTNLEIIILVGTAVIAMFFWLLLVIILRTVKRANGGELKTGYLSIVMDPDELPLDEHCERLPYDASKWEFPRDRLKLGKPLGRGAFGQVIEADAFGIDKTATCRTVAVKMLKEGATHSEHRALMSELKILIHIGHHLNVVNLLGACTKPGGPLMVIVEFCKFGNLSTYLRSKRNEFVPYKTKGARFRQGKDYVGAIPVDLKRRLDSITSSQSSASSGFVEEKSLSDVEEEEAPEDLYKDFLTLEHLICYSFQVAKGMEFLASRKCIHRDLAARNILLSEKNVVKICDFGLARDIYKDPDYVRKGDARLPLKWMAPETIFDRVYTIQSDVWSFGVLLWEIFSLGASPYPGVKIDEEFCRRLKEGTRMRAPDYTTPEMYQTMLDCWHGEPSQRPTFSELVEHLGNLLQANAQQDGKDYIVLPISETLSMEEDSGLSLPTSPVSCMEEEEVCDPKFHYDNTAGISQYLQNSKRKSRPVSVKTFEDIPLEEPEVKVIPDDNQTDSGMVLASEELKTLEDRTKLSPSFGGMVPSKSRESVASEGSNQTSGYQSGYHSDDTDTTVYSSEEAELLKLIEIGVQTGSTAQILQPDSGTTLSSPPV

For `Cn1cc(-c2cc(Oc3ccc(NC(=O)N4CCN(c5ccc(F)cc5)C4=O)nc3)ccn2)cn1`, the IC50 [1] was 0.013 µM, the IC50 [2] was 0.196 µM and the IC50 [3] was 0.99 µM.
